Experimental data published in US6576437B2, “Stimulus-inducible protein kinase complex and methods of use therefor” (Signal Pharmaceuticals, Inc., priority 1996, dated 2003).
“Also recorded” adds a separate entry of the source. Square brackets hold non-standard residues; d marks the D form. Ends that are not written are not given here. Peptide text beside a SMILES is read from it. pS = N[C@@H](COP(=O)(O)O)C(=O)O

Tests used:
[1] = target: T1, IKK signalsome (Homo sapiens, UniProt O14920+O15111); test: Inhibition of immunopurified IKK signalsome activity (32P incorporation into GST-IκBα(1-54)); assay type: biochemical; conditions: GST-IκBα(1-54) 0.56 μM, ATP 3 μM; for inhibition of IKK signalsome kinase (phosphorylation of GST-IκBα (1-54)): one hour at room temperature
T1 construct: endogenous in cells; host or cells: HeLa / HeLa S3 cells stimulated with TNFα; anti-MKP-1 immunoprecipitate
T1 sequence (O15111 whole entry): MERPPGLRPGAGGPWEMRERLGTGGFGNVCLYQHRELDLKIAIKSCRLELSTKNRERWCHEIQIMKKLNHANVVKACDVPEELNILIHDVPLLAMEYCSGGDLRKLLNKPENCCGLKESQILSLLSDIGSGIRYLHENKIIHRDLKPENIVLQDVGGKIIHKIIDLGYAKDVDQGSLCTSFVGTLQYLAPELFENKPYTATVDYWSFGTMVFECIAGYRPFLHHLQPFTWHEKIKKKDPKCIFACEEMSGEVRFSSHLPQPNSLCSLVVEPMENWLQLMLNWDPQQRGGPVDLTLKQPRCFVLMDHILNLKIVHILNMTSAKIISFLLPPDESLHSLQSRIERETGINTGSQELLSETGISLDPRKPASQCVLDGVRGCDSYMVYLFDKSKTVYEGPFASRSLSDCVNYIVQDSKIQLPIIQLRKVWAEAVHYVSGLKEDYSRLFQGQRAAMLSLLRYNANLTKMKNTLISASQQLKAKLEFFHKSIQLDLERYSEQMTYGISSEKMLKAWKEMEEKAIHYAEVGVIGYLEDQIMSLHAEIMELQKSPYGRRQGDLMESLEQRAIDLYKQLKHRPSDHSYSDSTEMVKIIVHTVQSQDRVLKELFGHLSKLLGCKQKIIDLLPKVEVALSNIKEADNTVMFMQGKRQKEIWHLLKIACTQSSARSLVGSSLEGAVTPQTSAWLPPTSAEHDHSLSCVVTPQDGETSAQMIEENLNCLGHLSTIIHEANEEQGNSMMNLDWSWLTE
T1 sequence (O14920 whole entry): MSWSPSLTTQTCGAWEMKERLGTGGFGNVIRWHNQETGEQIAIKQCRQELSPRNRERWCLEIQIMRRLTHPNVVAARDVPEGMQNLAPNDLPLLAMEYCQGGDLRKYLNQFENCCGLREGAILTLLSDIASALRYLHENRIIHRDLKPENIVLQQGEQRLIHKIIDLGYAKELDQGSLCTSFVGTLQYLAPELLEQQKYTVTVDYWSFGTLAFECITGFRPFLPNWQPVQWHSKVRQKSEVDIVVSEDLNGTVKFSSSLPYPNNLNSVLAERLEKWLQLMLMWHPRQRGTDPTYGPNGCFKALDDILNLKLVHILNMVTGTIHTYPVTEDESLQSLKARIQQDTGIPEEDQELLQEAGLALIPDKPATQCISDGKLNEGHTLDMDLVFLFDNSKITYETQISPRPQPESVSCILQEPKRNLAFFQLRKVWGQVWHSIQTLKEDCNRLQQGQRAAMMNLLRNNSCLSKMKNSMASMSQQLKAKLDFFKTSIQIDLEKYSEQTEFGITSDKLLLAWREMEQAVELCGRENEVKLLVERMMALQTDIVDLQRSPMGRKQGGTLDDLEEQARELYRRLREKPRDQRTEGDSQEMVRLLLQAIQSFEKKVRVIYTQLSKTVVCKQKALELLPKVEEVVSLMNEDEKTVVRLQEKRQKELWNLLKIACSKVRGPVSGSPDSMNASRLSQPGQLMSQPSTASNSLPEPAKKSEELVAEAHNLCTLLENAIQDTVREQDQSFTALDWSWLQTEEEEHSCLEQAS
T1 sequence (Q9Y6K9 whole entry partner): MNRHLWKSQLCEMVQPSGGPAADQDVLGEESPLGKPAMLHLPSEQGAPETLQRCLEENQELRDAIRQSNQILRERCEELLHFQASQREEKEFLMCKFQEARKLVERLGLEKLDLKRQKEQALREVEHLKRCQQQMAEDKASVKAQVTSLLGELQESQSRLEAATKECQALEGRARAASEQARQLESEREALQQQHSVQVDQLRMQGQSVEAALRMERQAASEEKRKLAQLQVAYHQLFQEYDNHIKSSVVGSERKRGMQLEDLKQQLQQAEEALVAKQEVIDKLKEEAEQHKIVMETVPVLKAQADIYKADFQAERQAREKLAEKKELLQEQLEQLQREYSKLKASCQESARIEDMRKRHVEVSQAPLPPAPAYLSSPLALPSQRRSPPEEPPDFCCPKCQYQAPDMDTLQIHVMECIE
Protocol: FIG. 9B is a graph illustrating the inhibition of phosphorylation of GST-IκBα (1-54) by IκBα(21-41) peptides. […] This assay only detects precipitated ^32P-labeled proteins, not ^32P-labeled peptides. Addition of the singly- or non-phosphorylated IκBα(21-41) peptides results in less phosphorylation of GST-IκBα (1-54) and apparent inhibition.
Inhibition of immunopurified IKK signalsome activity was measured by ^32P incorporation into GST-IκBα(1-54) in a discontinuous assay using the reaction conditions described above. The concentrations of GST-IκBα(1-54) and ATP used in the inhibition studies were 0.56 μM and 3 μM, respectively. Enzymatic reactions (32 μL) were carried out in wells of a 96 well assay plate for one hour at room temperature and terminated with the addition of trichloroacetic acid (TCA) (150 μL/well of 12.5% w/v). The subsequent 20 minute incubation with TCA precipitated the proteins but not peptides from solution. The TCA precipitate was collected on 96-well glass fiber plates (Packard) and washed 10 times with approximately 0.3 mL per well of Dulbecco's phosphate buffered saline pH 7.4 (Sigma) using a Packard Filtermate 196. Scintillation fluid (0.50 mL, MicroScint, Packard) was added to each well and the plate was analyzed for ^32P using a Packard TopCount scintillation counter. Less than 10% of ATP was turned over in the course of the assay reaction, ensuring that the kinetic data represented initial rate data. The inhibition constant of the P32, 36 peptide was determined by Dixon analysis (Dixon and Webb, In Enzymes (Academic Press: New York, ed. 3, 1979), pp. 350-51.

[2] = target: T1, IKK signalsome; test: Phosphorylation of synthetic peptides by the IKK signalsome (immunokinase assay); assay type: biochemical; conditions: peptide 100 μM; for phosphorylation of peptide by IKK signalsome: γ-[32P]-ATP, one hour at room temperature
Protocol: FIG. 9A is an autoradiogram depicting the results of an immunokinase assay in which peptides are phosphorylated by the IKK signalsome. In the top panel, IκBα(21-41) peptides that were unphosphorylated or chemically phosphorylated on either Ser-32 or Ser-36 were incubated with the IKK signalsome in the presence of γ-[^32P]-ATP.
Phosphorylation of these peptides (100 μM) was performed using a kinase reaction as described above. Reactions were for one hour at room temperature and were terminated by the addition of SDS-PAGE loading buffer. SDS-PAGE with a 16% Tris/tricine gel (Novex, San Diego, Calif.) or a 4-20% Tris/glycine gel (Novex, San Diego, Calif.) was used to characterize the reaction products. Gels were washed, dried in vacuo, and exposed to autoradiographic film.

[3] = target: T1, IKK signalsome; test: IKK signalsome activity in anti-MKP-1 immunoprecipitates from TNFα-stimulated HeLa S3 cells pretreated with inhibitor; assay type: cell-based; conditions: HeLa S3 cells pretreated 30 min with 15 μM prior to TNFα (20 ng/ml, 7 min)
Protocol: FIG. 8B illustrates the stimulus-dependent activation of IKK signalsome, which is blocked by TPCK. Anti-MKP-1 immunoprecipitates from cell extracts of HeLa S3 cells either stimulated for 7 min with TNFα (20 ng/ml, lane 2 and 6), IL-1 (10 ng/ml, lane 3), PMA (50 ng/ml, lane 4) or pretreated for 30 min with TPCK (15 μM, lane 7) prior to TNFα-induction were examined for IKK signalsome activity. GST IκBα 1-54 WT (4 μg) was used as a substrate.
For these studies, small scale immunoprecipitation were performed using two 150 mm plates of HeLa cells (one stimulated and one unstimulated). Whole cell lysates were diluted 4-fold with 2×Pull-Down Buffer (40 mM Tris pH 8.0, 500 mM NaCl, 0.1% NP-40, 6 mM EDTA, 6 mM EGTA, 10 mM β-glycerophosphate, 10 mM NaF, 10 mM PNPP, 300 μM Na3VO4, 1 mM benzamidine, 2 μM PMSF, 10 μg/ml aprotonin, 1 μg/ml leupeptin, 1 μg/ml pepstatin, 1 mM DTT) and 2-4 μg of the indicated antibody was added. Lysates were incubated on ice for 1-2 hours, 10 μl of Protein A or G beads were added, and lysates were left to incubate with gentle rotation for an additional 1 hour at 4° C. The immunoprecipitate was then washed 3 times with 2×Pull-Down Buffer, 1× with kinase buffer without ATP and subjected to a kinase assay as described in Example 2. […]

[4] = system: RelA translocation in HeLa cells; test: RelA nuclear translocation in transiently transfected HeLa cells (immunofluorescence); assay type: cell-based, human
Protocol: HeLa cells were transiently transfected with either HA-tagged IKK-1 K44 to M mutant (14B) or Flag-tagged IKK-2 K44 to M mutant (14C) expression vectors. 36 hours post-transfection cells were either not stimulated (Unstim) or TNFα-stimulated (20 ng/ml) for 30 min (TNFα), as indicated to the right of the figure. Cells were then subjected to immunofluorescence staining using anti-HA of anti-Flag antibodies to visualize expression of IKK-1 K44 to M or IKK-2 K44 to M, respectively. Stimulus-dependent translocation of Rel A was monitored using anti-Rel A antibodies. Antibodies used are indicated to the top of the figure. IKK mutant transfected is indicated to the left of the figure.
For these studies, HeLa cells were transiently transfected with either HA-tagged IKK-1 or Flag-tagged IKK-2. Cells were fixed for 30 minutes with methanol. For immunofluorescence staining, the cells were incubated sequentially with primary antibody in PBS containing 10% donkey serum and 0.25% Triton X-100 for 2 hours followed by fluorescein-conjugated or Texas red-conjugated secondary antibody (Jackson Immunoresearch Laboratories, Inc., West Grove, Pa.; used at 1:500 dilution) for 1 hour at room temperature. The coverslips were rinsed and coverslipped with Vectashield (Vector Laboratories, Burlingame, Calif.) before scoring and photographing representative fields. […]

DLTGGPEVAT(PO3)PESEEAFLP [c-Fos(222-241)]
inhibition of IKK signalsome kinase (phosphorylation of GST-IκBα (1-54)) [1]: does not function as an inhibitor
inhibition of IKK signalsome kinase (phosphorylation of GST-IκBα (1-54)) ([1]; listed as c-Fos phosphopeptide): not
inhibition of IKK signalsome kinase (phosphorylation of GST-IκBα (1-54)) ([1]; listed as c-fos phosphopeptide): not
phosphorylation of peptide by IKK signalsome [2]: did not function as a signalsome substrate
phosphorylation of peptide by IKK signalsome ([2]; listed as c-Fos phosphopeptide): did not phosphorylate

CPTNSALNYLKSPITTSPS [MKP-1 peptide]
phosphorylation of peptide by IKK signalsome [2]: did not phosphorylate

CKKERLLDDRHDSGLDSMKDEE [IκBα (21-41) peptide]
inhibition of IKK signalsome kinase (phosphorylation of GST-IκBα (1-54)) [1]: less effective inhibitors
phosphorylation of peptide by IKK signalsome [2]: capable of phosphorylating

CKKERLLDDRHDTGLDTMKDEE
phosphorylation by the signalsome, fold less well than the wild-type serine-containing peptide [2]: at least 10 fold

singly-phosphorylated IκBα peptides: two IκBα (21-41) peptides, free serine at position 32 or 36 and phosphoserine at the other position (KKERLLDDRHDSGLDSMKDEE; not fully specified (N-terminus); also: pS at S32 or S36, free Ser at the other (two peptides); UniProt P25963 21-41, looked up, fragment)
inhibition of IKK signalsome kinase (phosphorylation of GST-IκBα (1-54)) [1]: less effective inhibitors

Cc1ccc(S(=O)(=O)N[C@@H](Cc2ccccc2)C(=O)CCl)cc1 [TPCK]
IKK signalsome activity in treated cells [3]: inhibited; also recorded: blocked

CSCC[C@H](NC(=O)[C@H](COP(=O)(O)O)NC(=O)[C@H](CC(=O)O)NC(=O)[C@H](CC(C)C)NC(=O)CNC(=O)[C@H](COP(=O)(O)O)NC(=O)[C@H](CC(=O)O)NC(=O)[C@H](Cc1c[nH]cn1)NC(=O)[C@H](CCCNC(=N)N)NC(=O)[C@H](CC(=O)O)NC(=O)[C@H](CC(=O)O)NC(=O)[C@H](CC(C)C)NC(=O)[C@H](CC(C)C)NC(=O)[C@H](CCCNC(=N)N)NC(=O)[C@H](CCC(=O)O)NC(=O)[C@H](CCCCN)NC(=O)[C@H](CCCCN)NC(=O)[C@@H](N)CS)C(=O)N[C@@H](CCCCN)C(=O)N[C@@H](CC(=O)O)C(=O)N[C@@H](CCC(=O)O)C(=O)N[C@@H](CCC(=O)O)C(=O)O [IκBα(21-41) peptide P32,36] (H-CKKERLLDDRHD[pS]GLD[pS]MKDEE-OH)
Ki ([1]; Dixon analysis, read-out: Ki (product inhibition of GST-IκBα (1-54) phosphorylation)): 14 µM

B1: IKK-2 mutant: Flag-tagged kinase-inactive version (K44 to M) of IKK-2 (protein, UniProt O14920 1-756, looked up, variant K44M)
Inhibitor of nuclear factor …: MSWSPSLTTQTCGAWEMKERLGTGGFGNVIRWHNQETGEQIAIMQCRQELSPRNRERWCLEIQIMRRLTHPNVVAARDVPEGMQNLAPNDLPLLAMEYCQGGDLRKYLNQFENCCGLREGAILTLLSDIASALRYLHENRIIHRDLKPENIVLQQGEQRLIHKIIDLGYAKELDQGSLCTSFVGTLQYLAPELLEQQKYTVTVDYWSFGTLAFECITGFRPFLPNWQPVQWHSKVRQKSEVDIVVSEDLNGTVKFSSSLPYPNNLNSVLAERLEKWLQLMLMWHPRQRGTDPTYGPNGCFKALDDILNLKLVHILNMVTGTIHTYPVTEDESLQSLKARIQQDTGIPEEDQELLQEAGLALIPDKPATQCISDGKLNEGHTLDMDLVFLFDNSKITYETQISPRPQPESVSCILQEPKRNLAFFQLRKVWGQVWHSIQTLKEDCNRLQQGQRAAMMNLLRNNSCLSKMKNSMASMSQQLKAKLDFFKTSIQIDLEKYSEQTEFGITSDKLLLAWREMEQAVELCGRENEVKLLVERMMALQTDIVDLQRSPMGRKQGGTLDDLEEQARELYRRLREKPRDQRTEGDSQEMVRLLLQAIQSFEKKVRVIYTQLSKTVVCKQKALELLPKVEEVVSLMNEDEKTVVRLQEKRQKELWNLLKIACSKVRGPVSGSPDSMNASRLSQPGQLMSQPSTASNSLPEPAKKSEELVAEAHNLCTLLENAIQDTVREQDQSFTALDWSWLQTEEEEHSCLEQAS
modifications: Flag tag
inhibition of RelA nuclear translocation ([4]; TNFα-stimulated (20 ng/ml, 30 min) HeLa cells, 36 hours post-transfection): striking and complete
effect on subcellular localization of RelA ([4]; unstimulated HeLa cells): no effect
